Marks after values point to notes of the source that are not given here.
Legend:
COX–2 protein = conditions: cited from earlier work
ovine recombinant COX–1 = molecular target: T1, ovine recombinant COX–1 (Ovis aries, UniProt P05979); assay: cell-free COX–1 enzyme assay (PGE2 formation, LC-MS); format: biochemical; design: purchased Cayman Chemicals/ Biomol, Hamburg, Germany
T1 sequence (P05979 25-600): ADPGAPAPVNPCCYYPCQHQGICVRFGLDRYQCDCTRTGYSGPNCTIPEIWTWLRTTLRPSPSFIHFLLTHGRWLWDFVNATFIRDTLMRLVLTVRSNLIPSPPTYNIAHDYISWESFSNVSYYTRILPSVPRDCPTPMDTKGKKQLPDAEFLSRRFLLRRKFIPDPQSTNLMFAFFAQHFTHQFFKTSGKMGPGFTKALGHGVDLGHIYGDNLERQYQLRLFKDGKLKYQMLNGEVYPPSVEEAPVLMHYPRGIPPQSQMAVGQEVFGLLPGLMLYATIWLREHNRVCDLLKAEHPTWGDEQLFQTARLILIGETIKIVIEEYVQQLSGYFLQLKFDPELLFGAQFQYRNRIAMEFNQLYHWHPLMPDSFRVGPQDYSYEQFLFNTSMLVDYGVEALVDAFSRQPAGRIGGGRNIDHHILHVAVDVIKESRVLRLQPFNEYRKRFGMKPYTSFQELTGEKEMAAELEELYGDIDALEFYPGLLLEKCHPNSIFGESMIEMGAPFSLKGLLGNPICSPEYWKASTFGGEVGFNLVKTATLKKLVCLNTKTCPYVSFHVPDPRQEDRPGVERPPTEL

[1] = tested on: arachidonic acid (AA) cascade; assay: plasma oxylipin/PG levels in LPS induced sepsis in mice; format: in vivo, C57BL/6N mice;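 note: male C57BL/6N mice given LPS, plasma oxylipins quantified by LC-MS after solid-phase extraction, pretreatment or vehicle given intraperitoneally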
[2] = mice, compound i. p. 100 mg/kg bw 2 h before LPS, 24 h after LPS, vs. LPS group
[3] = plasma 24 h after LPS treatment, LPS +, mean

For `O=c1cc(-c2ccc(O)cc2)oc2cc(O)cc(O)c12` [Apigenin, apigenin], the “COX–2 (protein) levels, RAW 264.7 cells” value (COX–2 protein) is listed as “reduced COX–2 levels”, the “decreased PGE2 formation in comparison to the control, COX–1” value (ovine recombinant COX–1; 100 μM) is listed as 31% and the “inhibition, COX–1 enzyme assay” value (ovine recombinant COX–1; up to 100 μM) is listed as “inhibition < 50%(up to 100 μM)”. The “plasma epoxy- and dihydroxy-fatty acid (FA) metabolites of the CYP pathway” value [1, 2] was “reduced”, the “sum of DiHETrEs in plasma” value [1, 2] was “decrease” and the “sum of linoleic acid (LA) derived epoxy-metabolites in plasma” value [1, 2] was “decrease”. For the same molecule, the “1a,1b-dihomo-PGF2α concentration in plasma” value [1, 3] was 0.27 nM, the “4,5-DiHDPE concentration in plasma” value [1, 3] was 7.8 nM and the “4-HDHA concentration in plasma” value [1, 3] was 1.3 nM. For the same molecule, the “5(6)-EpETrE concentration in plasma” value [1, 3] was 6.8 nM, the “5,6-DiHETrE concentration in plasma” value [1, 3] was 0.62 nM and the “5-HEPE concentration in plasma” value [1, 3] was 0.27 nM. For the same molecule, the “5-HETE concentration in plasma” value [1, 3] was 2.4 nM, the “5-iPF2α concentration in plasma” value [1, 3] was less than 0.50 nM and the “5-oxo-ETE concentration in plasma” value [1, 3] was less than 1.0 nM. For the same molecule, the “6-keto-PGF1α concentration in plasma” value [1, 3] was 2.1 nM, the “7,8-DiHDPE concentration in plasma” value [1, 3] was 0.64 nM and the “7-HDHA concentration in plasma” value [1, 3] was 0.47 nM. For the same molecule, the “8(9)-EpETrE concentration in plasma” value [1, 3] was 1.5 nM, the “8,9-DiHETrE concentration in plasma” value [1, 3] was 1.4 nM and the “8-HDHA concentration in plasma” value [1, 3] was 3.0 nM. The “8-HETE concentration in plasma” value [1, 3] was 3.1 nM, the “8-iPF2a concentration in plasma” value [1, 3] was 0.19 nM and the “9(10)-EpODE concentration in plasma” value [1, 3] was 2.2^* nM. The “9(10)-EpOME concentration in plasma” value [1, 3] was 24^* nM, the “9(10)-Epoxystearic acid concentration in plasma” value [1, 3] was 18 nM and the “9,10,13-TriHOME concentration in plasma” value [1, 3] was 3.3 nM. The “9,10-DiHODE concentration in plasma” value [1, 3] was 4.0 nM, the “9,10-DiHOME concentration in plasma” value [1, 3] was 34 nM and the “9,10-Dihydroxystearic acid concentration in plasma” value [1, 3] was 47^‡ nM. The “9,12,13-TriHOME concentration in plasma” value [1, 3] was 38 nM, the “9-HODE concentration in plasma” value [1, 3] was 83 nM and the “9-HOTrE concentration in plasma” value [1, 3] was 6.1 nM. The “9-oxo-ODE concentration in plasma” value [1, 3] was 16 nM, the “10(11)-EpDPE concentration in plasma” value [1, 3] was 1.7 nM and the “10,11-DiHDPE concentration in plasma” value [1, 3] was 0.58^* nM. The “10-HDHA concentration in plasma” value [1, 3] was 3.0 nM, the “11(12)-EpETrE concentration in plasma” value [1, 3] was 2.0 nM and the “11,12-DiHETE concentration in plasma” value [1, 3] was less than 0.13 nM. The “11,12-DiHETrE concentration in plasma” value [1, 3] was 1.1^* nM, the “11-HDHA concentration in plasma” value [1, 3] was 0.67 nM and the “11-HETE concentration in plasma” value [1, 3] was 1.8 nM. For the same molecule, the “12(13)-EpODE concentration in plasma” value [1, 3] was 1.8 nM, the “12(13)-EpOME concentration in plasma” value [1, 3] was 29^* nM and the “12,13-DiHODE concentration in plasma” value [1, 3] was 4.5 nM. The “12,13-DiHOME concentration in plasma” value [1, 3] was 114 nM, the “12-HEPE concentration in plasma” value [1, 3] was 25 nM and the “12-HETE concentration in plasma” value [1, 3] was 260 nM. For the same molecule, the “13(14)-EpDPE concentration in plasma” value [1, 3] was 1.2 nM, the “13,14-DiHDPE concentration in plasma” value [1, 3] was 0.58^* nM and the “13,14-dihydro-15-keto-PGE1 concentration in plasma” value [1, 3] was 0.14 nM. The “13,14dihydro-15-keto-PGF2α concentration in plasma” value [1, 3] was 0.41 nM, the “13-HDHA concentration in plasma” value [1, 3] was 0.98 nM and the “13-HODE concentration in plasma” value [1, 3] was 110^* nM. For the same molecule, the “13-HOTrE concentration in plasma” value [1, 3] was 5.7 nM, the “13-oxo-ODE concentration in plasma” value [1, 3] was 2.5 nM and the “14(15)-EpETE concentration in plasma” value [1, 3] was 0.14^† nM. For the same molecule, the “14(15)-EpETrE concentration in plasma” value [1, 3] was 1.5^* nM, the “14,15-DiHETE concentration in plasma” value [1, 3] was 0.19^† nM and the “14,15-DiHETrE concentration in plasma” value [1, 3] was 2.2 nM. The “14-HDHA concentration in plasma” value [1, 3] was 71 nM, the “15(16)-EpODE concentration in plasma” value [1, 3] was 1.2 nM and the “15(S)-HETrE concentration in plasma” value [1, 3] was 0.94 nM. For the same molecule, the “15,16-DiHODE concentration in plasma” value [1, 3] was 24 nM, the “15-HETE concentration in plasma” value [1, 3] was 2.5 nM and the “15-oxo-ETE concentration in plasma” value [1, 3] was 0.29 nM. For the same molecule, the “16(17)-EpDPE concentration in plasma” value [1, 3] was 1.2 nM, the “16,17-DiHDPE concentration in plasma” value [1, 3] was 1.2^* nM and the “16-HDHA concentration in plasma” value [1, 3] was 1.0 nM. The “17(18)-EpETE concentration in plasma” value [1, 3] was 0.68^* nM, the “17,18-DiHETE concentration in plasma” value [1, 3] was 1.2^* nM and the “17-HDHA concentration in plasma” value [1, 3] was 5.2 nM. The “18-HEPE concentration in plasma” value [1, 3] was 0.26 nM, the “19(20)-EpDPE concentration in plasma” value [1, 3] was 9.4 nM and the “19,20-DiHDPE concentration in plasma” value [1, 3] was 11 nM. The “20-HDHA concentration in plasma” value [1, 3] was 2.2 nM, the “20-HEPE concentration in plasma” value [1, 3] was 1.7^* nM and the “20-HETE concentration in plasma” value [1, 3] was 1.6 nM. The “EKODE concentration in plasma” value [1, 3] was 7.0 nM, the “PGD2 concentration in plasma” value [1, 3] was less than 0.50 nM and the “PGE2 concentration in plasma” value [1, 3] was 1.3 nM. For the same molecule, the “PGF1α concentration in plasma” value [1, 3] was 0.10 nM, the “PGF2α concentration in plasma” value [1, 3] was 0.42 nM and the “TXB2 concentration in plasma” value [1, 3] was 1.1 nM.

Reference: paper PMC4594923, “Food Polyphenols Fail to Cause a Biologically Relevant Reduction of COX-2 Activity” (PLoS ONE, 2015)
